From patent publication US9187491B2, “Gambogenic acid derivatives, preparation method and application thereof” (Ninth People's Hospital, School Medicine Shanghai Jiao Tong …, priority 2012, dated 2015)

How the values were obtained:
[1] = test system: Human oral squamous cells carcinoma Cal27; assay: growth inhibition of tumor cell Cal27 (SRB staining); format: cell-based; conditions: for efficacy: Cal27, assessment of results; for growth inhibition rate: 72 hours, SRB
Excerpt: (§1) The compounds synthesized from the present invention were studied by sulforhodamine B protein staining (sulfothodalnine B, SRB) and miceroculture tetrazolinetetrozohuln (MTT) colorimetric method respectively for in vitro anti-tumor activity (Cancer Res., 1988, 48 (3): 589).
(§2) The concentration gradient of the test compounds of the present invention is 10^−4M, 10^−5M, 10^−6M, 10^−7M, 10^−8M, and the test compounds are 6-methoxy methyl ester gambogenic acid, ethyl ester gambogenic acid, 6-ethoxy ethyl ester gambogenic acid, 6-acyl gambogenic acid, piperidine gambogenic acid, diethylamide gambogenic acyl, morpholine gambogenic acid, and 12-hydroxy gambogenic acid, and 8,9-epoxy gambogenic acid. The test compounds and positive control gambogenic acid were diluted with dimethyl sulfoxide. Inhibition rate(%)=[(control group OD value−administered group OD value)/control group OD value]×100%
Human oral squamous cells carcinoma Cal27 were cultured in DMEM containing 10% fetal bovine serum (FBS), the cells with long-growth phase were forming suspension and culturing in 96-well plates. 10 μl test compounds of different concentrations as experimental group were added into each well of the 96-well plates. Blank control group received an equal volume containing the highest concentration of solvent (ie, 10^−4M dimethyl sulfoxide) in DMEM. After incubation at 37° C. under 5% carbon dioxide conditions for 72 hours, the cells were fixed with trichloroacetic acid, and each well was added with 100 μl SRB solution, unbound SRB was washed away, and then OD values were measured at 550 nm by an automatic plate reader spectrophotometer. A tumor cell group without drugs is a blank control group.

[2] = test system: Human breast cancer cells MCF-7; assay: growth inhibition of tumor cell MCF-7 (MTT colorimetric method); format: cell-based; conditions: for efficacy: MCF-7, assessment of results; for growth inhibition rate: 72 hours, MTT
Excerpt: as §1, §2
Human breast cancer cells MCF-7 were cultured in DMEM containing 10% FBS, the cell with long-growth phase was formed into suspension and cultured in 96-well plates. The test compounds as experimental group with different concentrations were added into each well of the 96-well plates. Blank control group received an equal volume containing the highest concentration of solvent (ie, 10^−4M dimethyl sulfoxide) in DMEM. After incubation at 37° C. under 5% carbon dioxide conditions for 72 hours, each well was added with MTT to 1 mg/ml final concentration for incubation for 4 hours. The supernatant solution in each well was aspirated and added with 200 μl DMSO to dissolve crystals, and then OD values were measured at 490 nm by an automatic plate reader spectrophotometer. A tumor cell group without drugs is a blank control group.

mouse leukemia L1210 = conditions: compared with garcinia acid; cited from earlier work
[3] = Homo sapiens, CAL-27, 72 h, read-out: growth inhibition rate
[4] = Homo sapiens, MCF7, 72 h, read-out: growth inhibition rate

SMILES | efficacy [1] | efficacy [2] | growth inhibition rate ([1]; Cal27, 10^−4M) [%] | growth inhibition rate ([1]; Cal27, 10^−5M) [%] | growth inhibition rate ([1]; Cal27, 10^−6M) [%] | growth inhibition rate ([1]; Cal27, 10^−7M) [%] | growth inhibition rate ([1]; Cal27, 10^−8M) [%] | growth inhibition rate ([2]; MCF-7, 10^−4M) [%] | growth inhibition rate ([2]; MCF-7, 10^−5M) [%] | growth inhibition rate ([2]; MCF-7, 10^−6M) [%] | growth inhibition rate ([2]; MCF-7, 10^−7M) [%] | growth inhibition rate ([2]; MCF-7, 10^−8M) [%] | also measured
CC(C)=CCC/C(C)=C/Cc1c(O)c(CC=C(C)C)c2c(c1O)C(=O)C1=CC3CC4C(C)(C)OC(C/C=C(/C)C(=O)O)(C3=O)C14O2 (stereo not shown) [gambogenic acid, Gambogenic acid] | invalid (Invalid: 10^−5M inhibition rate<85%) | invalid (Invalid: 10^−5M inhibition rate<85%) | – | – | – | – | – | – | – | – | – | – | inhibition at 0.01 µM [1, 3]: 0%; inhibition at 0.1 µM [1, 3]: 0%; inhibition at 1 µM [1, 3]: 5%; inhibition at 10 µM [1, 3]: 100%; inhibition at 100 µM [1, 3]: 100%; inhibition at 0.01 µM [2, 4]: 0%; inhibition at 0.1 µM [2, 4]: 0%; inhibition at 1 µM [2, 4]: 0%; inhibition at 10 µM [2, 4]: 100%; inhibition at 100 µM [2, 4]: 100%; highest survival rate extended, relative to garcinia acid (mouse leukemia L1210): up to 2.45 times
CC(C)=CCC/C(C)=C/Cc1c(O)c(CC=C(C)C)c2c(c1O)C(=O)C1=CC3CC4C(C)(C)OC(C/C=C(/C)C(=O)N5CCCCC5)(C3=O)C14O2 (stereo not shown) [piperidine gambogenic acid] | invalid (Invalid: 10^−5M inhibition rate<85%) | invalid (Invalid: 10^−5M inhibition rate<85%) | 100 | 100 | 70 | 0 | 0 | 100 | 100 | 67 | 0 | 0 | –
CCOC(=O)/C(C)=C\CC12OC(C)(C)C3CC(C=C4C(=O)c5c(O)c(C/C=C(\C)CCC=C(C)C)c(O)c(CC=C(C)C)c5OC431)C2=O (stereo not shown) [ethyl ester gambogenic acid] | potent (Potent: 10^−6M inhibition rate≧75% or 10^−7M inhibition rate>50%) | potent (Potent: 10^−6M inhibition rate≧75% or 10^−7M inhibition rate>50%) | 100 | 100 | 98 | 0 | 0 | 100 | 100 | 96 | 0 | 0 | –
CC(C)=CCC/C(C)=C/Cc1c(O)c(CC=C(C)C)c2c(c1O)C(=O)C1=CC3CC4C(C)(C)OC(C/C=C(/C)C(=O)N5CCOCC5)(C3=O)C14O2 (stereo not shown) [morpholine gambogenic acid] | potent (Potent: 10^−6M inhibition rate≧75% or 10^−7M inhibition rate>50%) | potent (Potent: 10^−6M inhibition rate≧75% or 10^−7M inhibition rate>50%) | 100 | 100 | 100 | 14 | 0 | 100 | 100 | 78 | 14 | 0 | –
CCOC(=O)/C(C)=C\CC12OC(C)(C)C3CC(C=C4C(=O)c5c(OCC)c(C/C=C(\C)CCC=C(C)C)c(O)c(CC=C(C)C)c5OC431)C2=O (stereo not shown) [6-ethoxy ethyl ester gambogenic acid, 6-ethoxyl gambogenic acid ethyl ester] | potent (Potent: 10^−6M inhibition rate≧75% or 10^−7M inhibition rate>50%) | potent (Potent: 10^−6M inhibition rate≧75% or 10^−7M inhibition rate>50%) | 100 | 100 | 94 | 0 | 0 | 100 | 100 | 86 | 0 | 0 | –
